% of control, % of inhibition and % of engagement data for eleven compounds are collected here from ChEMBL document CHEMBL5465560, “Selectivity Literature for EUbOPEN Chemogenomic Library” (2024).

Molecules are shown by their SMILES.

Test [1] concerns the target Protein kinase C beta type (Homo sapiens, UniProt P05771). The experiment in a line: Selectivity interaction (ProQinase) EUB0000171b PRKCB.
For test [2], the target named is Tyrosine-protein kinase ABL1 (Homo sapiens, UniProt P00519). As to conditions: at 10 µM.
Test [3] deals with Tyrosine-protein kinase Blk (Homo sapiens) (UniProt P51451). As to conditions: at 10 µM.
For test [4], the target named is Mitogen-activated protein kinase 9 (Homo sapiens, UniProt P45984). As to conditions: at 10 µM.
Test [5] addresses Serine/threonine-protein kinase PAK 6 (Homo sapiens) (UniProt Q9NQU5). The experiment in a line: Selectivity interaction (KinomeScan (DiscoverX)) EUB0001079a PAK6. The note with it: at 1 µM.
Test [6] has as its target Phosphatidylinositol 4,5-bisphosphate 3-kinase catalytic subunit gamma isoform (Homo sapiens) (UniProt P48736). The experiment in a line: Selectivity interaction (KinomeScan (DiscoverX)) EUB0001049a PIK3CG. The note with it: at 1 µM.
Test [7] deals with T1, G protein-coupled receptor kinase 3 (Homo sapiens) (UniProt P35626).
T1 sequence (whole entry): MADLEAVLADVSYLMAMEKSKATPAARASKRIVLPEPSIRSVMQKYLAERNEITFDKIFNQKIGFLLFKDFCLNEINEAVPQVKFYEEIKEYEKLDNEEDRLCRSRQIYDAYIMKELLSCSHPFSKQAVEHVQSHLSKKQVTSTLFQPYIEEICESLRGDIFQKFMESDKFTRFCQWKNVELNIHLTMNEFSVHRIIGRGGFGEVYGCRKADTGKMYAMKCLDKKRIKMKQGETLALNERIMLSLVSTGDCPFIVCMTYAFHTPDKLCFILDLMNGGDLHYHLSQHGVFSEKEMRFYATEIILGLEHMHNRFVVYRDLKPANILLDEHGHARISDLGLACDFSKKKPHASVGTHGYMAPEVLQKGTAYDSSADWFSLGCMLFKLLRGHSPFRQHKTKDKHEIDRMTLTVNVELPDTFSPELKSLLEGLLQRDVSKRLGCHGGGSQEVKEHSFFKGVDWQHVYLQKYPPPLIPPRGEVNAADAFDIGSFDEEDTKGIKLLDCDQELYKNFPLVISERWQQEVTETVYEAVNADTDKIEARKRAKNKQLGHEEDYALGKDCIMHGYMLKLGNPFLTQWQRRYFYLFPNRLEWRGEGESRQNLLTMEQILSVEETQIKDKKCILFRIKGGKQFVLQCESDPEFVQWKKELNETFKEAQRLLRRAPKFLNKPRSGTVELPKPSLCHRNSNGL
The experiment in a line: Selectivity interaction (KinomeScan (DiscoverX)) EUB0001049a ADRBK2. As to conditions: at 1 µM.

Test [8] has as its target Serine/threonine-protein kinase 38 (Homo sapiens) (UniProt Q15208). The experiment in a line: Selectivity interaction (KinomeScan (DiscoverX)) EUB0000695a STK38. The note with it: at 100 nM.
For test [9], the target named is BMP-2-inducible protein kinase (Homo sapiens) (UniProt Q9NSY1). The experiment in a line: Selectivity interaction (KinomeScan (DiscoverX)) EUB0000666a BMP2K. The note with it: at 10 µM.
The target in test [10] is T2, Serine/threonine-protein kinase 17B (Homo sapiens) (UniProt O94768).
T2 sequence (whole entry): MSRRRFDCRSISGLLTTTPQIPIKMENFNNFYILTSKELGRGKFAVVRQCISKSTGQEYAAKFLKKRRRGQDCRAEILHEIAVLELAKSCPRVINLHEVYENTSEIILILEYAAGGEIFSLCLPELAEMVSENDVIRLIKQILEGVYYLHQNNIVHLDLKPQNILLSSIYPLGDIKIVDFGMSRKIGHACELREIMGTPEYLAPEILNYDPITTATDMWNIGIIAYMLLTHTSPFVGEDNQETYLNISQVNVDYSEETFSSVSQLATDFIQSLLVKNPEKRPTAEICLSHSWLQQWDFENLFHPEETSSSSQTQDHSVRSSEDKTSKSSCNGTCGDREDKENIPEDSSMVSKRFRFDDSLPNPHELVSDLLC
The experiment in a line: Selectivity interaction (KinomeScan (DiscoverX)) EUB0000607a STK17B. As to conditions: at 10 µM.

In test [11] the target is T3, MAP kinase-activated protein kinase 5 (Homo sapiens) (UniProt Q8IW41).
T3 sequence (whole entry): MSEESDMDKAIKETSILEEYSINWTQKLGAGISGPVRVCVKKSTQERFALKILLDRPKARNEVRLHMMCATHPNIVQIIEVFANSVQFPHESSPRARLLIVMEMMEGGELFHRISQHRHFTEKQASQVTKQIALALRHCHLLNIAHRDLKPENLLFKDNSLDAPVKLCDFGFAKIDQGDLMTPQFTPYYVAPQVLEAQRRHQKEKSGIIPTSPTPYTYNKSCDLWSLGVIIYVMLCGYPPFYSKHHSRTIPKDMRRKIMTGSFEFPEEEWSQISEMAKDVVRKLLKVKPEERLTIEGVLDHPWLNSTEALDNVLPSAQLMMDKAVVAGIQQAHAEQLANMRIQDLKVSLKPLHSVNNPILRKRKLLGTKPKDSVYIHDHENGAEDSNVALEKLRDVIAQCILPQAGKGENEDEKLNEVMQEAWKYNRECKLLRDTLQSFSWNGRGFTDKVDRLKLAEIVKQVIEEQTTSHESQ
The experiment in a line: Selectivity interaction (SelectScreen profiling (Invitrogen)) EUB0000607a MAPKAPK5. As to conditions: at 2 µM.

Test [12] has as its target Cyclin-dependent kinase 10 (Homo sapiens) (UniProt Q15131). The experiment in a line: Selectivity interaction (ActivX KiNativ screen (kinase selectivity in THP-1 cell lysates)) EUB0000639a CDK10. It counts as subcellular. The note with it: lysate.
Test [13] addresses Casein kinase I isoform gamma-1 (Homo sapiens) (UniProt Q9HCP0). The experiment in a line: Selectivity interaction (Kinase panel (Invitrogen)) EUB0000639a CSNK1G1. As to conditions: at 200 nM.
For test [14], the target named is Serine/threonine-protein kinase PRP4 homolog (Homo sapiens) (UniProt Q13523). The experiment in a line: Selectivity interaction (ActivX KiNativ screen (kinase selectivity in THP-1 cell lysates)) EUB0000639a PRPF4. The note with it: lysate, at 0.04 µM. It counts as subcellular.
For test [15], the target named is Activin receptor type-2A (Homo sapiens) (UniProt P27037). The experiment in a line: Selectivity interaction (KinomeScan (DiscoverX)) EUB0000595a ACVR2A. The note with it: at 10 µM.
Test [16] deals with Serine/threonine-protein kinase Nek4 (Homo sapiens) (UniProt P51957). The experiment in a line: Selectivity interaction (Kinase panel (KiNativ target engagement assay in Jurkat cells)) EUB0001635a NEK4. It is filed as cell-based. The note with it: at 1 µM.
Serine/threonine-protein kinase Nek4 (Homo sapiens), sequence (P51957 whole entry, looked up): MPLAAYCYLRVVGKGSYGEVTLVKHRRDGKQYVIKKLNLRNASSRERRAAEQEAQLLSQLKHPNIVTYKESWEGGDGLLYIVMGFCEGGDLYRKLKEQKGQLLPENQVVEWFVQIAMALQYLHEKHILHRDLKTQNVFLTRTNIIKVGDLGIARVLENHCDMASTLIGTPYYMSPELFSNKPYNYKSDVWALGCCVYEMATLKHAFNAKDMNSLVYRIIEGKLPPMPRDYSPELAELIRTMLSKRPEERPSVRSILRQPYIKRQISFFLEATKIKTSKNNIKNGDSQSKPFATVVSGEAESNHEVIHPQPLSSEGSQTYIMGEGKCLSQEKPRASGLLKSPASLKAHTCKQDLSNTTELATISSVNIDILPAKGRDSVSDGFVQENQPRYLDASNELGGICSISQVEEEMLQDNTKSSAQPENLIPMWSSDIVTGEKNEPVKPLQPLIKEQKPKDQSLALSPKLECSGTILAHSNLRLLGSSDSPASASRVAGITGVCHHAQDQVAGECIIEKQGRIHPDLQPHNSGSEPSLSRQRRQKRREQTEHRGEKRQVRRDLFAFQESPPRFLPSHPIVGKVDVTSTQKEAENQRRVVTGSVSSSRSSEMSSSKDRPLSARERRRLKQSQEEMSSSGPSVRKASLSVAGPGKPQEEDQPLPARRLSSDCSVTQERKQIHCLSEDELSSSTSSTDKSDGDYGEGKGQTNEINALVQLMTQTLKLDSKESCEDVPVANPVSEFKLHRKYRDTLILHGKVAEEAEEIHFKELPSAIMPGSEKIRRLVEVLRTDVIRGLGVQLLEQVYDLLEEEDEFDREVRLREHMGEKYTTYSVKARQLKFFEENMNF

Cyclin-dependent kinase 10 (Homo sapiens), sequence (Q15131 whole entry, canonical isoform): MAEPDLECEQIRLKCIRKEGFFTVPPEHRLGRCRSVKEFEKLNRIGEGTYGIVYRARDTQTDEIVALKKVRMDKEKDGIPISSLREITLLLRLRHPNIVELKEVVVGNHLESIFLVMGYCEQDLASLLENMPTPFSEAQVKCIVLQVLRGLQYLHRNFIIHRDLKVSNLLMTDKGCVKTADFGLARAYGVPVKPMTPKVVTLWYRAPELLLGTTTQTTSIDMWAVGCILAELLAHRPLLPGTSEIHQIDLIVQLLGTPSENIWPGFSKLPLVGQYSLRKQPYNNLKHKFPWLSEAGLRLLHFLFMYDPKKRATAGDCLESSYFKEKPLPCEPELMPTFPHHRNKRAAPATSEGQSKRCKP
Protein kinase C beta type, sequence (P05771 2-671 limits assumed): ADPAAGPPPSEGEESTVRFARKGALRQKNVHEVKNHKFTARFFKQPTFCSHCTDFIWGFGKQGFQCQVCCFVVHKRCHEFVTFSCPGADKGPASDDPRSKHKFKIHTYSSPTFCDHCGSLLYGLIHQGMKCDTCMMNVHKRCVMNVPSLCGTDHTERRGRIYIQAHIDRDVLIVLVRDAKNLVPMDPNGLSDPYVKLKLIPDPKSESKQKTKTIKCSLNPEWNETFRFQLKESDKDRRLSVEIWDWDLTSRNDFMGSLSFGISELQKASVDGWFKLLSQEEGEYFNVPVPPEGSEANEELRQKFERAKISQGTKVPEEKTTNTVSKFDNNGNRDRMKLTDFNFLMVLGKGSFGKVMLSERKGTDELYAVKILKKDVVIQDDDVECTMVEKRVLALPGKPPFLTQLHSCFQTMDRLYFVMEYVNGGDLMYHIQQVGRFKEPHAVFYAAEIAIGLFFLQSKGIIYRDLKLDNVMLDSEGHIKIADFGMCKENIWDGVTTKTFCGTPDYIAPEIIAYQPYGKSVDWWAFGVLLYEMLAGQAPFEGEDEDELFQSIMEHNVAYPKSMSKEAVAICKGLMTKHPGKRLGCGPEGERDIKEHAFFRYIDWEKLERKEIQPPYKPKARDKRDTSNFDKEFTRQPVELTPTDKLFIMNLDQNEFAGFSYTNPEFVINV
Mitogen-activated protein kinase 9, sequence (P45984 whole entry, looked up): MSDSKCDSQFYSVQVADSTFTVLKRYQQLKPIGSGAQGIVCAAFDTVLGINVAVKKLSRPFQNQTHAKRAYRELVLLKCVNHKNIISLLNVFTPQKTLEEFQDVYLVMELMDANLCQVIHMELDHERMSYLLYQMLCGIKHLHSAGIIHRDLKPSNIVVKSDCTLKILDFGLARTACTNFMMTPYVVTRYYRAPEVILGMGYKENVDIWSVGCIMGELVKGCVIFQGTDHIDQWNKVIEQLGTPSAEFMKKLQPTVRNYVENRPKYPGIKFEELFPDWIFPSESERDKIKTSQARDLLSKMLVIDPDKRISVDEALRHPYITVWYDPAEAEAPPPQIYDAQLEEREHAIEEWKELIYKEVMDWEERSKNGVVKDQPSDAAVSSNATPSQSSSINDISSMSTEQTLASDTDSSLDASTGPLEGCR
Serine/threonine-protein kinase 38 (Homo sapiens), sequence (Q15208 2-465 limits assumed): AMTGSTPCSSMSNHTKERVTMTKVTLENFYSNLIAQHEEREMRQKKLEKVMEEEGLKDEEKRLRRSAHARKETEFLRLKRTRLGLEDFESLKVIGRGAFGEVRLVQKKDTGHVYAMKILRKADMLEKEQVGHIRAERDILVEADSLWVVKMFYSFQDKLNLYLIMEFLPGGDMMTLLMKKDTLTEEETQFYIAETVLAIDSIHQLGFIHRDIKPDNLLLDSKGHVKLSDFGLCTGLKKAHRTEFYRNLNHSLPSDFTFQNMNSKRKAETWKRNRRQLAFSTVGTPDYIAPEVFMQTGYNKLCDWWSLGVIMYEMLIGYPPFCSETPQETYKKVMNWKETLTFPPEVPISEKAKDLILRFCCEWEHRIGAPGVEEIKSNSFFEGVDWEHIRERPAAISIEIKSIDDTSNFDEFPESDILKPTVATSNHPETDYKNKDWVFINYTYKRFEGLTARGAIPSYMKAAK
Serine/threonine-protein kinase PAK 6 (Homo sapiens), sequence (Q9NQU5 whole entry, looked up, canonical isoform): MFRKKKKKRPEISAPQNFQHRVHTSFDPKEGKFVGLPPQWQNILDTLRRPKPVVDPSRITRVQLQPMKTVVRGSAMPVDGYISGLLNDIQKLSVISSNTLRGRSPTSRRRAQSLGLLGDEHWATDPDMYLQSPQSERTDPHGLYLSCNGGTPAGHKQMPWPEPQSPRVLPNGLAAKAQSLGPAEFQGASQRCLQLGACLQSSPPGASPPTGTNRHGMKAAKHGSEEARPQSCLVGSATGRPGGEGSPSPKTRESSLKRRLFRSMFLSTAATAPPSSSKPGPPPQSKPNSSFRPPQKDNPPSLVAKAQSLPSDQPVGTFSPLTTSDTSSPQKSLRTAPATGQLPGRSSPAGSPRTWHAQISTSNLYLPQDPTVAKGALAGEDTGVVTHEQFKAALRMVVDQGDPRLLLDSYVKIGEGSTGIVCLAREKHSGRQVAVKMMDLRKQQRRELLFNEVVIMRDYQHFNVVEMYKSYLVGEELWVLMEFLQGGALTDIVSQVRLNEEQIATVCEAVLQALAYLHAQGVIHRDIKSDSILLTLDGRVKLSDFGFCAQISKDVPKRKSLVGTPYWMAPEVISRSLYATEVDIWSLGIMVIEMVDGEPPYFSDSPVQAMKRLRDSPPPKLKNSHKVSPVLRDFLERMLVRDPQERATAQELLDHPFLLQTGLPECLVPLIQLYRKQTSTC
Activin receptor type-2A (Homo sapiens), sequence (P27037 whole entry): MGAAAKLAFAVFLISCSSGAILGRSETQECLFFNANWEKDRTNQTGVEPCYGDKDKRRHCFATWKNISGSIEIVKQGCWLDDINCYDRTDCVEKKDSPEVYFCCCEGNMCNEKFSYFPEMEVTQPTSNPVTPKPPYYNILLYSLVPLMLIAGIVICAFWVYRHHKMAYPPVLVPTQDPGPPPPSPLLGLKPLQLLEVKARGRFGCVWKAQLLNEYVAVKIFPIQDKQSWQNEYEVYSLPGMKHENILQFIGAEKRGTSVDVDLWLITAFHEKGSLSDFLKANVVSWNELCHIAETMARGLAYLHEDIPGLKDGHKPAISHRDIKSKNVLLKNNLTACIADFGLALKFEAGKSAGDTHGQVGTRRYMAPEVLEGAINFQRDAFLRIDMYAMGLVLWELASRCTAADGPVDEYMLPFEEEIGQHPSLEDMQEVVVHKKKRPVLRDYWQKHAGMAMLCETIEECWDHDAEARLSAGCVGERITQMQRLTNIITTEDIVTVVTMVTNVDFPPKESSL
Serine/threonine-protein kinase PRP4 homolog (Homo sapiens), sequence (Q13523 whole entry): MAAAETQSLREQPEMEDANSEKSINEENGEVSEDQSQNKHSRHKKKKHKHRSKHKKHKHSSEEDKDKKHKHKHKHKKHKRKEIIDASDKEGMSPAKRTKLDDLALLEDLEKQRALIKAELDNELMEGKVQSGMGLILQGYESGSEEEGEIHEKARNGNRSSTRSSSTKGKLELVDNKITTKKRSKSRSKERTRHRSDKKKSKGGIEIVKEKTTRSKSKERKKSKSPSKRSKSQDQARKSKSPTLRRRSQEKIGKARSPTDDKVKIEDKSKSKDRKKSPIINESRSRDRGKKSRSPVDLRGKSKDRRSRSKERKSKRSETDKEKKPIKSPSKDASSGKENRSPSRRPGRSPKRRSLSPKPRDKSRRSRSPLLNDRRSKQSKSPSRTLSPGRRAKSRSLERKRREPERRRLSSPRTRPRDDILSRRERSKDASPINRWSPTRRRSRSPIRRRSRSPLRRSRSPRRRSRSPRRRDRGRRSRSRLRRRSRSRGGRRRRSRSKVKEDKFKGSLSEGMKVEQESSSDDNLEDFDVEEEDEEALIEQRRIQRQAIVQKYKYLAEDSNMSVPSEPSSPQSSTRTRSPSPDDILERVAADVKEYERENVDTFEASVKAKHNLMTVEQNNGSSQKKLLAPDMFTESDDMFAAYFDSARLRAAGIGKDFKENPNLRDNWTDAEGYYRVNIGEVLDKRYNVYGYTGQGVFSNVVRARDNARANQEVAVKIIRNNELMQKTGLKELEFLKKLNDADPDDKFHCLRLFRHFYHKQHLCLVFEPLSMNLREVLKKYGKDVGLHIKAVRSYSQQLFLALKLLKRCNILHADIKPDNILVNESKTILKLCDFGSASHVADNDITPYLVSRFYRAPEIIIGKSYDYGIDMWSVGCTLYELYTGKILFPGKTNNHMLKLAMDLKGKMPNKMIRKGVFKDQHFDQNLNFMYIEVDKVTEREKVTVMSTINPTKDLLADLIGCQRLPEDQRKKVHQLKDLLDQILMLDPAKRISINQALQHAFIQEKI

As to `C=CC(=O)Nc1cccc(C(=O)Nc2ccc(Nc3cc(-c4[nH]c(SC)nc4C)ccn3)cc2)c1`, the values for the % of control in test [1] (at 1 µM) and in [1] (at 5 µM) were 111% and 106%, respectively.
The compound `Cc1cc([C@@H](C)Nc2ccccc2C(=O)O)c2nc(N3CCOCC3)cc(=O)n2c1` [AZD-6482] showed a % of control in test [2] of 88%.
Take `CCN(CC)CCCCNc1ncc2cc(-c3cc(OC)cc(OC)c3)c(NC(=O)NC(C)(C)C)nc2n1`: the % of control in test [3] and in [4] was 100% in each case.
In test [5], `Nc1cnc(N2CCc3cc(S(=O)(=O)Nc4c(F)cc(Cl)cc4F)cc(N4CCCC4=O)c32)nc1` [TP-020n] showed a % of control of 100%.
`COc1cc(Nc2nc(C)cc(-c3cnn4nc(OC)ccc34)n2)cc(C(F)(F)F)c1`: the % of control in [6] turned out to be 93%; in test [7], 100%.
On to `Cc1cc(F)c(C(=O)Nc2cccc(-c3nncn3C(C)C)n2)cc1-n1cnc(C2CC2)c1`, for which the % of control in test [8] is 93%.
In turn, `O=C(NOC[C@H](O)CO)c1ccc(F)c(F)c1Nc1ccc(I)cc1F` registered a % of control in test [9] of 91%.
In test [10], `CNC(=O)Nc1ccc(-c2nc(N3CC4CCC(C3)O4)c3cnn(C4CCC5(CC4)OCCO5)c3n2)cc1` returned a % of control of 100%. In test [11], the % of inhibition stood at 5%.
Regarding `CC[C@@H]1[C@H](F)C(=O)N[C@@H]1COc1nccc2cc(C(N)=O)c(OC)cc12` [ZIMLOVISERTIB], the % of inhibition in test [12] (at 0.01 µM) is 0.5%; in [12] (at 0.04 µM), 6.6%; in [12] (at 0.2 µM), -14.2%; in test [12] (at 1 µM), 6.3%; in [12] (at 5 µM), 19.6%; in test [13], 69.1%. Besides, the % of inhibition in test [14] was determined as 16%.
In test [15], `COCC(=O)NC/C=C/c1ccc2ncnc(Nc3ccc(Oc4ccc(C)nc4)c(C)c3)c2c1` [CP-724714] displayed a % of control of 100%.
The compound `C=CC(=O)Nc1ccc(C(=O)Nc2[nH]nc3c2CN(C(=O)N[C@H](CN(C)C)c2ccccc2)C3(C)C)cc1` displayed a % of engagement in test [16] of 0.8%.
